molecular target: T1, human JAK2 (Homo sapiens, UniProt O60674); test: In vitro JAK kinase assay (HTRF, phosphorylation of biotinylated peptide); format: biochemical; details: catalytic domain a.a. 828-1132, 30 μM ATP, 500 nM peptide, room temperature 1 hr; read-out: JAK-2 IC50
T1 construct: JAK2 (a.a. 828-1132); His tag (N); made in house; host or cells: insect cells (baculovirus)
In short: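 IC50 from HTRF detection (Eu-Py20 antibody, SA-APC) of biotinylated-peptide phosphorylation (500 nM), run 1 h at RT. Enzyme: N-His human JAK2 kinase domain a.a. 828-1132 from insect cells; ATP 30 μM; buffer 50 mM Tris pH 7.8 with NaCl, DTT, BSA.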

T1 sequence (O60674 828-1132): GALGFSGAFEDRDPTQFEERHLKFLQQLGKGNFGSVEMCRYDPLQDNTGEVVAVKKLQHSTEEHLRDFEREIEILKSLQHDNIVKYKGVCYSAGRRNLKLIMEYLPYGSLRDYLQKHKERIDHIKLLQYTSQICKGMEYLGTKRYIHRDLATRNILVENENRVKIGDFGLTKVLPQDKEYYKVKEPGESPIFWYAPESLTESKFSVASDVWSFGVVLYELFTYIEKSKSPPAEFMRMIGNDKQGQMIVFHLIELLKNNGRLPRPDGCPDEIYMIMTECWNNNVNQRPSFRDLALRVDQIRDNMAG

IC50, < 100 nM:
N#CCC(C1CCCC1)n1cc(-c2ccnc(Nc3cccc(C(=O)NCCN4CCNC4=O)c3)n2)cn1 (centres unmarked) [Example 159, 3-(4-(1-(2-cyano-1-cyclopentylethyl)-1H-pyrazol-4-yl)pyrimidin-2-ylamino)-N-(2-(2-oxoimidazolidin-1-yl)ethyl)benzamide]
N#CCC(C1CCOCC1)n1cc(-c2ccnc(Nc3ccc(C(=O)N4CC[C@H](C#N)C4)cc3)n2)cn1 (mixture of isomers) [Example 317, (3S)-1-{4-[(4-{1-[2-cyano-1-(tetrahydro-2H-pyran-4-yl)ethyl]-1H-pyrazol-4-yl}pyrimidin-2-yl)amino]benzoyl}pyrrolidine-3-carbonitrile]
N#CCC(C1CCCC1)n1cc(-c2ccnc(Nc3cccc(NC(=O)CNCC4CC4)c3)n2)cn1 (racemic) [Example 241, N-(3-(4-(1-(2-cyano-1-cyclopentylethyl)-1H-pyrazol-4-yl)pyrimidin-2-ylamino)phenyl)-2-(cyclopropylmethylamino)acetamide]
N#CCC1(n2cc(-c3ccnc(Nc4ccc(N5CCOCC5)cc4)n3)cn2)CCN(C(=O)c2ccno2)CC1 [Example 94, 2-(1-(isoxazole-5-carbonyl)-4-(4-(2-(4-morpholinophenylamino)pyrimidin-4-yl)-1H-pyrazol-1-yl)piperidin-4-yl)acetonitrile]
CN1CCC(NC(=O)c2cccc(Nc3nccc(-c4cnn(C(CC#N)C5CCCC5)c4)n3)c2)CC1 (racemic) [Example 154, 3-(4-(1-(2-cyano-1-cyclopentylethyl)-1H-pyrazol-4-yl)pyrimidin-2-ylamino)-N-(1-methylpiperidin-4-yl)benzamide]
Cc1cnc(Nc2ccc(N3CCNCC3)cc2)nc1-c1cnn(C(CC#N)C2CCCC2)c1 (racemic) [Example 78, 3-cyclopentyl-3-(4-(5-methyl-2-(4-(piperazin-1-yl)phenylamino)pyrimidin-4-yl)-1H-pyrazol-1-yl)propanenitrile]
N#CCC(C1CCCC1)n1cc(-c2ccnc(Nc3ccc(C(=O)N4CCOCC4)cc3)n2)cn1 (racemic) [Example 213, 3-cyclopentyl-3-(4-(2-(4-(morpholine-4-carbonyl)phenylamino)pyrimidin-4-yl)-1H-pyrazol-1-yl)propanenitrile]
COc1cnc(Nc2ccc(C(=O)N3CCOCC3)cc2)nc1-c1cnn(C(CC#N)C2CCCC2)c1 (racemic) [Example 302, 3-cyclopentyl-3-(4-(5-methoxy-2-(4-(morpholine-4-carbonyl)phenylamino)pyrimidin-4-yl)-1H-pyrazol-1-yl)propanenitrile]
CC1(C)NC(=O)O[C@]12CCN(C(=O)c1ccc(Nc3nccc(-c4cnn(C(CC#N)C5CCCC5)c4)n3)cc1)C2 (single isomer, unassigned) [Example 219, 3-cyclopentyl-3-(4-(2-(4-((S*)-4,4-dimethyl-2-oxo-1-oxa-3,7-diazaspiro[4.4]nonane-7-carbonyl)phenylamino)pyrimidin-4-yl)-1H-pyrazol-1-yl)propanenitrile]
CCS(=O)(=O)N1CC(CC#N)(n2cc(-c3ccnc(Nc4ccc(C(=O)N5C6CC7CC5CC(C6)O7)cc4)n3)cn2)C1 [Example 274, 1-(ethylsulfonyl)-3-(4-(2-(4-(2-oxa-6-azatricyclo[3.3.1.1(3,7)]dec-6-ylcarbonyl)phenyl)aminopyrimidin-4-yl)-1H-pyrazol-1-yl)azetidin-3-ylacetonitrile]
N#CCC(C1CCOCC1)n1cc(-c2ccnc(Nc3ccc(C(=O)N4CCC(O)CC4)cc3)n2)cn1 (racemic) [Example 312, 3-{4-[2-({4-[(4-hydroxypiperidin-1-yl)carbonyl]phenyl}amino)pyrimidin-4-yl]-1H-pyrazol-1-yl}-3-(tetrahydro-2H-pyran-4-yl)propanenitrile]
